Data as given in article PMC8507260, “A2E-induced inflammation and angiogenesis in RPE cells in vitro are modulated by PPAR-α, -β/δ, -γ, and RXR antagonists and by norbixin” (Aging (Albany NY), 2021).

Assays:
[1] = test system: IL-8; experiment: IL-8 mRNA expression by quantitative RT-PCR in porcine RPE cells; type: cell-based; conditions: A2E 20 μM; MK886 1 μM, GSK3787 1 μM, T007907 10 μM, HX531 5 μM
Procedure: (§1) Pig eyes were obtained from a local slaughterhouse and transported to the laboratory in ice-cold Ringer solution. After removal of the anterior segment of the eye, the vitreous and neural retina was separated from the RPE and removed. The eyecup was washed twice with phosphate buffer saline (PBS), filled with trypsin (0.25% in PBS) and incubated at 37°C for 1.5 h. RPE cells were harvested by gently pipetting, centrifuged to remove trypsin and re-suspended in Dulbecco’s Modified Eagle Medium (DMEM) supplemented with 20% (v/v) foetal-calf serum (DMEM20%FCS) and 0.1% gentamycin. Cells were seeded into 60 mm diameter Petri dishes, cultured in an atmosphere of 5% CO2/95% air at 37°C, and supplied with fresh medium after 24 hours and 4 days in vitro. For experiments aimed at measuring mRNA or protein expression in RPE, cells were trypsinized after one week in culture and transferred to 24-well or 6-well plates at a density of 1.5 × 10^5 cells/cm^2 in DMEM2%FCS. Norbixin or agonists were added to the medium 24 h after seeding, and antagonists were added to the medium 24 h later. A2E treatment was performed during 19 h before cellular sample preparation. All the drugs used in these experiments were prepared as stock solutions in DMSO.
(§2) Total RNA was extracted using the NucleoSpin® RNA kit according to manufacturer’s instructions. RT of 500 ng of RNA was performed using the SuperScript III Reverse Transcriptase following the manufacturer’s instructions. Five ng of cDNA were amplified using the SYBR GREEN real-time PCR method. PCR primers for target genes and housekeeping gene GAPDH were designed using Primer3Plus Bioinformatic software (Table 2). The RT-PCR using the StepOne Plus (Life Technologies, Carlsbad, CA, USA) consisted of incubation at 50°C for 5 min followed by 40 cycles of 95°C for 15 s and of 60°C for 1 min. The reaction was completed by a melt curve stage at 95°C for 15 s, 60°C for 1 min, 95°C for 15 s and a final step at 60°C for 15 s. The relative mRNA expression was calculated using the comparative threshold method (Ct-method) with GAPDH for normalization. All experimental conditions were processed in triplicate and each experiment was done at least 3 times.

[2] = test system: PPAR; experiment: Endogenous PPAR transactivation, luciferase reporter in primary porcine RPE cells; type: cell-based; conditions: A2E 20 μM; for effect on endogenous PPAR transactivation induced by A2E: MK886 1 μM, GSK3787 1 μM, T007907 10 μM, separately or as mixture
Procedure: as §1
(§3) After one week in culture, cells were trypsinized and transferred to a 96-well plate at a density of 6 × 10^4 cells/cm^2 in DMEM2%FCS. The next day, cells were transfected using the Cignal Reporter Assay Kits for PPAR, RXR, AP-1 and NF-κB, according to the manufacturer’s specifications. To measure the specific activation of PPAR isoforms, cells were also co-transfected with PPAR-α, PPAR-β/δ or PPAR-γ expression vectors. Transfection was performed with Lipofectamine and Plus Reagent in serum-free medium. 3 h after the transfection, the medium was replaced and treatments with the molecules to assay were performed. Luciferase activity was measured the next day using the Dual-Luciferase Reporter Assay System. The measurements were performed with a luminometer (Infinite M1000 from Tecan, Mannedorf, Switzerland). Firefly: Renilla activity ratios were calculated for each condition and ratios from transcription factor-responsive reporter transfections were divided by ratios from negative control transfections to obtain relative luciferase unit, as described by the manufacturer. At least 3 independent transfections were performed in triplicate for each condition.

[3] = test system: IL-6; experiment: IL-6 mRNA expression by quantitative RT-PCR in porcine RPE cells; type: cell-based; conditions: T007907 10 μM; for reduction of IL-6 mRNA expression induced by A2E: NBX 20 μM with A2E 30 μM, MK886 1 μM, GSK3787 1 μM, HX531 5 μM with A2E 20 μM
Procedure: as §1, §2

[4] = test system: PPAR-α; experiment: Transactivation of over-expressed PPAR-α, luciferase reporter in porcine RPE cells; type: cell-based, pig; conditions: vs DMSO control; A2E 20 μM; NBX increasing concentrations
Procedure: First, we evaluated the binding profile of A2E to all three isoforms of PPAR. […] Then the effects of A2E on the endogenous PPAR transactivation in porcine RPE cells were investigated by means of a luciferase assay. […] The level of transactivation of PPAR-α, -β/δ, or -γ isoforms by A2E was determined by co-transfection of porcine RPE cells with a plasmid expressing each of the full-length PPAR isoforms and a plasmid expressing luciferase under the control of the PPAR response element. […]. All usual chemicals, primers, and HX531 were from Sigma (St. Louis, MO, USA). Reagents for cell culture, transfection and quantitative RT-PCR were from Thermo Fisher Scientific (Waltham, MA, USA). RNA extraction NucleoSpin® RNA kit was from Macherey Nagel (Düren, Germany). ECL prime and PVDF membrane were from Amersham GE Healthcare (Buckinghamshire, UK). Primary antibodies against the following proteins were used: GAPDH (Santa Cruz Biotechnology, Inc, Dallas, TX, USA); pAKT, AKT, pERK and ERK (Cell Signaling, Danvers, MA, USA). Secondary antibodies were from Jackson ImmunoResearch (Cambridgeshire, UK). […] Cignal Pathway Reporter Assay Kits were from QIAGEN (Frederick, MD, USA). The Dual-Luciferase Reporter Assay System was purchased from Promega (Madison, WI, USA). pcDNA 3.1 (+)-PPARα and pcDNA 3.1 (+)-PPARβ/δ (pig sequence) were purchased from Genscript (Piscataway, NJ, USA). pCMV6-XL4-PPARγ (human sequence) was purchased from Origene (Rockville, MD, USA).
as §3

[5] = target: T1, PPAR-α (Homo sapiens, UniProt Q07869); conditions: stated without reference; cited from earlier work
T1 construct: Eurofins Cerep (contract laboratory that ran the assay)
T1 sequence (Q07869 1-468): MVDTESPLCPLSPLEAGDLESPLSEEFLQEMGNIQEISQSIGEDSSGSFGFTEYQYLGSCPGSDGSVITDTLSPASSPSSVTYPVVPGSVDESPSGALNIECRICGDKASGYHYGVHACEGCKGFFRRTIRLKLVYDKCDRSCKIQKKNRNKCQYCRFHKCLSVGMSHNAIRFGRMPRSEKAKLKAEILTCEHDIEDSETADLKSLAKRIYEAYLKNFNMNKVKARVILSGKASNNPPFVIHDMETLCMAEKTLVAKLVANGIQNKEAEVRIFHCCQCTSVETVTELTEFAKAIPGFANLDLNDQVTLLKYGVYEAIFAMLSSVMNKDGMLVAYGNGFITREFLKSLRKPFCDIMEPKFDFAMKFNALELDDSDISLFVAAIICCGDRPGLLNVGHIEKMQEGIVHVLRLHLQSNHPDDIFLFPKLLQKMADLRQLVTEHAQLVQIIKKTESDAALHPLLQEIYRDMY

[6] = test system: NF-κB; experiment: NF-κB transactivation, luciferase reporter in porcine RPE cells; type: cell-based; conditions: A2E 20 μM, T007907 10 μM; for inhibition of NF-κB transactivation induced by A2E: NBX 20 μM, HX531 5 μM
Procedure: as §1, §3

[7] = test system: AP-1; experiment: AP-1 transactivation, luciferase reporter in porcine RPE cells; type: cell-based; conditions: A2E 20 μM; NBX 20 μM, HX531 5 μM
Procedure: as §1
as §3, with “Transfection was performed with Lipofectamine and Plus Reagent in serum-free medium. 3 h after the transfection, the medium was replaced and treatments with the molecules to assay were performed.” left out, “The measurements were performed with a luminometer (Infinite M1000 from Tecan, Mannedorf, Switzerland).” left out, “At least 3 independent transfections were performed in triplicate for each condition.” left out

[8] = test system: VEGF; experiment: VEGF mRNA expression by quantitative RT-PCR in porcine RPE cells; type: cell-based; conditions: HX531 5 μM + A2E 20 μM
Procedure: as §1
as §2, with “All experimental conditions were processed in triplicate and each experiment was done at least 3 times.” left out

[9] = test system: RXR; experiment: Endogenous RXR transactivation, luciferase reporter in porcine RPE cells; type: cell-based; conditions: NBX 20 μM
Procedure: as §1, §3

SMILES | inhibition of IL-8 mRNA expression induced by A2E [1] [%] | effect on endogenous PPAR transactivation induced by A2E [2] | reduction of IL-6 mRNA expression induced by A2E [3] [%] | inhibition of NF-κB transactivation induced by A2E [6] [%] | also measured
O=C(NCCS(=O)(=O)c1ccc(C(F)(F)F)cn1)c1ccc(Cl)cc1 [GSK3787] | 35 | did not significantly inhibit | 45 | – | –
CCCCCCCN(CCc1ccc(SC(C)(C)C(=O)O)cc1)C(=O)Nc1ccc(F)cc1F [GW9578] | – | – | – | – | transactivation of over-expressed PPAR-α by the compound alone [4]: induced transactivation; binding affinity to PPAR-α [5]: nanomolar range
CN1c2ccc([N+](=O)[O-])cc2N=C(c2ccc(C(=O)O)cc2)c2cc3c(cc21)C(C)(C)CCC3(C)C [HX531] | 99.6 | – | 88.6 | 100 | inhibition of AP-1 transactivation induced by A2E [7]: 100%; lowering of VEGF mRNA expression induced by A2E [8]: 76.8%; inhibition of endogenous PPAR transactivation induced by A2E ([2]; NBX 20 μM, HX531 5 μM (HX531 effect not significant)): 30%; inhibition of RXR transactivation induced by A2E ([9]; A2E 20 μM, HX531 5 μM): 50.1%
CC1(C)CCC(C)(C)c2cc3c(cc21)Sc1ccccc1N=C3c1ccc(C(=O)O)cc1 [HX630] | – | – | – | – | transactivation of RXRs by the compound alone ([9]; HX630 5 μM, vs DMSO control): transactivation induced by HX630
CC(C)c1ccc2c(c1)c(SC(C)(C)C)c(CC(C)(C)C(=O)O)n2Cc1ccc(Cl)cc1 [MK886] | 37 | did not significantly inhibit | 58.7 | – | –
O=C(Nc1ccncc1)c1cc([N+](=O)[O-])ccc1Cl [T007907] | 45.9 | did not significantly inhibit | 69.6 | 100 | effect of the compound alone on NF-κB transactivation ([6]; vs DMSO control): inhibited; effect of the compound alone on IL-6 mRNA expression ([3]; vs DMSO control): enhanced
